# Test results taken from patent US5789434A, “Derivatives of substituted 4-biarylbutyric acid as matrix metalloprotease inhibitors” (priority 1995, dated 1998).
# Legend:
# Assay type in all cases: biochemical
# MMP-3 = target: T1, MMP-3 (Homo sapiens, UniProt P08254); experiment: Automated MMP Profiling Assay, MMP-3 fluorogenic; settings: for IC50: 96-well automated, P218
# T1 construct: Truncated Prostromelysin-257 was expressed in a soluble form in E.coli; made in house; host or cells: E. coli
# T1 sequence (P08254 100-274 limits assumed): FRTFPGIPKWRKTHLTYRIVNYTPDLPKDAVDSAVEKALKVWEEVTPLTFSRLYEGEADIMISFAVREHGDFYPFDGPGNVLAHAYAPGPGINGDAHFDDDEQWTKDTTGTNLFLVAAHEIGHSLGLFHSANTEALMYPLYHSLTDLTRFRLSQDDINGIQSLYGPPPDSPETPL
# Description: This assay with each invention compound was run with the three enzymes MMP-3, MMP-9 and MMP-2 in parallel as adapted for a 96-well microtitre plate using a Hamilton A® workstation.
# MMP-2 = target: T2, MMP-2 (Homo sapiens, UniProt P08253); experiment: Automated MMP Profiling Assay, MMP-2 fluorogenic; settings: for IC50: 96-well automated, P218, read-out: MMP-2 Fluorogenic IC50 (profiling)
# T2 sequence (P08253 110-660): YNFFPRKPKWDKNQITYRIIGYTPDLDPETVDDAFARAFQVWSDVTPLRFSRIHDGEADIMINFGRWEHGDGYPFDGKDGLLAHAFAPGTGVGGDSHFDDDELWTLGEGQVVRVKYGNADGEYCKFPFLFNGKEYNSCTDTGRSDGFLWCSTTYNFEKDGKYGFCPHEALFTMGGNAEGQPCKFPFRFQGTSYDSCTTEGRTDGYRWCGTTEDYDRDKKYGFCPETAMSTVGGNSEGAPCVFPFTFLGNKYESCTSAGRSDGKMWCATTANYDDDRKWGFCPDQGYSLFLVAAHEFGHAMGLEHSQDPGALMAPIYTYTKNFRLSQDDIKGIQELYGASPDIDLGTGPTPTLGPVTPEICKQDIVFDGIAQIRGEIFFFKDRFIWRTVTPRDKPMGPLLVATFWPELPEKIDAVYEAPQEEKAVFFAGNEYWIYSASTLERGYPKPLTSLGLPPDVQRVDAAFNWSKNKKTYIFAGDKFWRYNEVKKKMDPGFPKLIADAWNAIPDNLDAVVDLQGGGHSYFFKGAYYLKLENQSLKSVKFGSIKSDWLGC
# MMP-9 = target: T3, MMP-9 (Homo sapiens, UniProt P14780); experiment: Automated MMP Profiling Assay, MMP-9 fluorogenic; settings: for IC50: 96-well automated, P218
# T3 construct: from tissue; host or cells: human polymorphonuclear leukocytes (PMN) from whole blood (New York Blood Center), PMA-stimulated supernatant
# T3 sequence (P14780 107-707 limits assumed): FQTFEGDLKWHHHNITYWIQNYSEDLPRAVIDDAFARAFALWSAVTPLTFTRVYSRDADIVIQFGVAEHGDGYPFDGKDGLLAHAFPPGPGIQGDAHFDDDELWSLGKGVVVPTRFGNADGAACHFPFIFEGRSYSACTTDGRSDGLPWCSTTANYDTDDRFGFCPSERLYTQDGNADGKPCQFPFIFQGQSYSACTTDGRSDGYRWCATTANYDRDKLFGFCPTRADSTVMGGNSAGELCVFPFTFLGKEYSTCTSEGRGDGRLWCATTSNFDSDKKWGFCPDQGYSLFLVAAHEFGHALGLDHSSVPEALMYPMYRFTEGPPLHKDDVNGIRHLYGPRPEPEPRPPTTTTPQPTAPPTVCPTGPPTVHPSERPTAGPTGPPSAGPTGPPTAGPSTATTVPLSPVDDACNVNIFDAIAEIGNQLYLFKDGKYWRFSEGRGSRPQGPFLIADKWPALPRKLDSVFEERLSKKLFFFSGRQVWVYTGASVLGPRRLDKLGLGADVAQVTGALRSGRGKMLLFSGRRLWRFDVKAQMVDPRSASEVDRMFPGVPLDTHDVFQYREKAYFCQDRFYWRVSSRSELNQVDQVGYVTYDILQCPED
Structure (SMILES),IC50 (MMP-3) [nM],IC50 (MMP-2) [nM],IC50 (MMP-9) [nM],inhibition at 5 µM (MMP-9) [%],inhibition at 5 µM (MMP-3; at 5 μM) [%],inhibition at 5 µM (MMP-2; at 5 μM) [%]
"O=C(CC(CCCc1ccccc1)C(=O)O)c1ccc(-c2ccc(OCCc3ccccc3)cc2)cc1 (stereo not drawn) [Example 102, [1,1'-Biphenyl]-4-butanoic acid, γ-oxo-4'-(2-phenylethoxy)-α-(3-phenylpropyl)-]",78,25,698,,,
"Cc1ccc(COc2ccc(-c3ccc(C(=O)CC(CCCc4ccccc4)C(=O)O)cc3)cc2)cc1 (stereo not drawn) [Example 103, [1,1'-Biphenyl]-4-butanoic acid, 4'-[(4-methylphenyl)methoxy]-γ-oxo-α-(3-phenylpropyl)-]",57,30,,28,,
"O=C(CC(CCCc1ccccc1)C(=O)O)c1ccc(-c2ccc(OCc3ccc(C(F)(F)F)cc3)cc2)cc1 (stereo not drawn) [Example 104, [1,1'-Biphenyl]-4-butanoic acid, γ-oxo-α-(3-phenylpropyl)-4'-[[4-(trifluoromethyl)phenyl]methoxy]-]",125,63,,18,,
"COc1ccc(COc2ccc(-c3ccc(C(=O)CC(CCCc4ccccc4)C(=O)O)cc3)cc2)cc1 (stereo not drawn) [Example 105, [1,1'-Biphenyl]-4-butanoic acid, 4'-[(4-methoxyphenyl)methoxy]-γ-oxo-α-(3-phenylpropyl)-]",33,14,,37,,
"O=C(CC(CCCc1ccccc1)C(=O)O)c1ccc(-c2ccc(OCc3cccc(Cl)c3)cc2)cc1 (stereo not drawn) [Example 106, [1,1'-Biphenyl]-4-butanoic acid, 4'-[(3-chlorophenyl)methoxy]-γ-oxo-α-(3-phenylpropyl)-]",57,43,622,,,
"O=C(CC(CCCc1ccccc1)C(=O)O)c1ccc(-c2ccc(OCc3ccc(F)cc3)cc2)cc1 (stereo not drawn) [Example 107, [1,1'-Biphenyl]-4-butanoic acid, 4'-[(4-fluorophenyl)methoxy]-γ-oxo-α-(3-phenylpropyl)-]",32,16,,34,,
"CCCCCCCCCCOc1ccc(-c2ccc(C(=O)CC(CCCc3ccccc3)C(=O)O)cc2)cc1 (stereo not drawn) [Example 108, [1,1'-Biphenyl]-4-butanoic acid, 4'-(decyloxy)γ-oxo-α-(3-phenylpropyl)-]",,,,4,8,16
"O=C(CC(CCCc1ccccc1)C(=O)O)c1ccc(-c2ccc(OCc3cccnc3)cc2)cc1 (stereo not drawn) [Example 109, [1,1'-Biphenyl]-4-butanoic acid, γ-oxo-α-(3-phenylpropyl)-4'-(3-pyridinylmethoxy)-]",28,6.6,1290,,,
"O=C(CC(CCCc1ccccc1)C(=O)O)c1ccc(-c2ccc(OCc3ccccn3)cc2)cc1 (stereo not drawn) [Example 110, [1,1'-Biphenyl]-4-butanoic acid, γ-oxo-α-(3-phenylpropyl)-4'-(2-pyridinylmethoxy)-]",37,38,,26,,
"O=C(CC(CCCc1ccccc1)C(=O)O)c1ccc(-c2ccc(OCc3ccncc3)cc2)cc1 (stereo not drawn) [Example 111, [1,1'-Biphenyl]-4-butanoic acid, γ-oxo-α-(3-phenylpropyl)-4'-(4-pyridinylmethoxy)-]",18,3.9,4730,,,
"NC(=O)c1ccc(COc2ccc(-c3ccc(C(=O)CC(CCCc4ccccc4)C(=O)O)cc3)cc2)cc1 (stereo not drawn) [Example 112, [1,1'-Biphenyl]-4-butanoic acid, 4'-[[4-(aminocarbonyl)phenyl]methoxy]-γ-oxo-α-(3-phenylpropyl)-]",30,11,884,,,
O=C(O)c1ccc(COc2ccc(-c3ccc(C(=O)CC(CCCc4ccccc4)C(=O)O)cc3)cc2)cc1 (stereo not drawn) [Example 113],28,44,1330,,,
"O=C(CC(CCc1cccc(I)c1)C(=O)O)c1ccc(-c2ccc(Cl)cc2)cc1 (stereo not drawn) [Example 127, [1,1'-Biphenyl]-4-butanoic acid, 4'-chloro-α[2-(3-iodophenyl)ethyl]-γ-oxo-]",605,40,1220,,,
"O=C(CC(CCc1ccc(I)cc1)C(=O)O)c1ccc(-c2ccc(Cl)cc2)cc1 (stereo not drawn) [Example 128, [1,1'-Biphenyl]-4-butanoic acid, 4'-chloro-α-[2-(4-iodophenyl)ethyl]-γ-oxo-]",561,145,715,,,
"COc1cc(CCC(CC(=O)c2ccc(-c3ccc(Cl)cc3)cc2)C(=O)O)cc(OC)c1 (stereo not drawn) [Example 129, [1,1'-Biphenyl]-4-butanoic acid, 4'-chloro-α-[2-(3,5-dimethoxyphenyl)ethyl]-γ-oxo-]",237,89,771,,,
"O=C(CC(CCCc1ccccc1)C(=O)O)c1ccc(-c2ccc(Br)cc2)cc1 (stereo not drawn) [Example 134, [1,1'-Biphenyl]-4-butanoic acid, 4'-bromo-γ-oxo-α-(3-phenylpropyl)-]",304,63,358,,,
"O=C(Nc1ccc(-c2ccc(C(=O)CC(CCc3ccccc3)C(=O)O)cc2)cc1)OCc1ccccc1 (stereo not drawn) [Example 137, [1,1'-Biphenyl]-4-butanoic acid, γ-oxo-α-(2-phenylethyl)-4'-[[(phenylmethoxy)carbonyl]amino]-]",> 1250,548,1400,,,
"CC(C)(C)OC(=O)Nc1ccc(-c2ccc(C(=O)CC(CCc3ccccc3)C(=O)O)cc2)cc1 (stereo not drawn) [Example 138, [1,1'-Biphenyl]-4-butanoic acid, 4'-[[(1,1-dimethylethoxy)carbonyl]amino]-γ-oxo-α-(2-phenylethyl)-]",905,665,,0,,
"CC(=O)Nc1ccc(-c2ccc(C(=O)CC(CCc3ccccc3)C(=O)O)cc2)cc1 (stereo not drawn) [Example 139, [1,1'-Biphenyl]-4-butanoic acid, 4'-(acetylamino)-γ-oxo-α-(2-phenylethyl)-]",5000,323,5000,,,
"CCCCC(=O)Nc1ccc(-c2ccc(C(=O)CC(CCc3ccccc3)C(=O)O)cc2)cc1 (stereo not drawn) [Example 140, [1,1'-Biphenyl]-4-butanoic acid, γ-oxo-4'-[(1-oxopentyl)amino]-α-(2-phenylethyl)-]",1030,242,> 1250,,,
"CC(C)(C)CC(=O)Nc1ccc(-c2ccc(C(=O)CC(CCc3ccccc3)C(=O)O)cc2)cc1 (stereo not drawn) [Example 141, [1,1'-Biphenyl]-4-butanoic acid, 4'-[(3,3-dimethyl-1-oxobutyl)amino]-γ-oxo-α-(2-phenylethyl)-]",< 5000,1170,,0,,
"O=C(CC(CCc1ccccc1C(=O)O)C(=O)O)c1ccc(-c2ccc(Cl)cc2)cc1 (stereo not drawn) [Example 143, [1,1'-Biphenyl]-4-butanoic acid, α-[2-(2-carboxyphenyl)ethyl]-4'-chloro-γ-oxo-]",309,111,1400,,,
"CCN(CC)C(=O)c1cccc(CCC(CC(=O)c2ccc(-c3ccc(Cl)cc3)cc2)C(=O)O)c1 (stereo not drawn) [Example 144, 4-[4-(4-chlorophenyl)phenyl]-4-oxo-2-[2-(3-N,N-diethylcarbamoyl)phenyl]butanoic acid]",15,3.4,29,,,
CCN(CC)C(=O)c1cccc(CC[C@H](CC(=O)c2ccc(-c3ccc(Cl)cc3)cc2)C(=O)O)c1 [Example 146],2400,538,2710,,,
"CCCCNC(=O)c1ccccc1CCC(CC(=O)c1ccc(-c2ccc(Cl)cc2)cc1)C(=O)O (stereo not drawn) [Example 147, [1,1'-Biphenyl]-4-butanoic acid, α-[2-[2-[(butylamino)carbonyl]phenyl]ethyl]-4'-chloro-γ-oxo-]",266,73,676,,,
"O=C(O)c1cccc(CCC(CC(=O)c2ccc(-c3ccc(Cl)cc3)cc2)C(=O)O)c1 (stereo not drawn) [Example 148, [1,1'-Biphenyl]-4-butanoic acid, α-[2-(3-carboxyphenyl)ethyl]-4'-chloro-γ-oxo-]",90,54,454,,,
"CCCCNC(=O)c1cccc(CCC(CC(=O)c2ccc(-c3ccc(Cl)cc3)cc2)C(=O)O)c1 (stereo not drawn) [Example 150, [1,1'-Biphenyl]-4-butanoic acid, α-[2-[3-[(butylamino)carbonyl]phenyl]ethyl]-4'-chloro-γ-oxo-]",371,201,957,,,
"CCN(CC)C(=O)c1ccc(CCC(CC(=O)c2ccc(-c3ccc(Cl)cc3)cc2)C(=O)O)cc1 (stereo not drawn) [Example 151, [1,1'-Biphenyl]-4-butanoic acid, 4'-chloro-α-[2-[4-[(diethylamino)carbonyl]phenyl]ethyl]-γ-oxo-]",371,70,607,,,
"CCCCNC(=O)c1ccc(CCC(CC(=O)c2ccc(-c3ccc(Cl)cc3)cc2)C(=O)O)cc1 (stereo not drawn) [Example 152, [1,1'-Biphenyl]-4-butanoic acid, α-[2-[4-[(butylamion)carbonyl]phenyl]ethyl]-4'-chloro-γ-oxo-]",367,210,597,,,
